The results in this text go back to US6613747B2, “6-O-carbamoyl ketolide antibacterials” (Ortho-McNeil Pharmaceutical, Inc., priority 2000, dated 2003).

The structures appear in SMILES notation. Converted amounts (≈) assume the structure as drawn.

Common to all, as to test: MIC, microdilution broth method (NCCLS)
Type in all cases: cell-based

For assay [1], the system named is E. coli OC2605. To be noted: A: E. coli OC2605, 35° C., 16-20 hours. The gist of the method: (§1)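 Two-fold serial compound dilutions in cation-adjusted Mueller-Hinton broth were inoculated at approximately 5×10^4 CFU/well from actively growing cultures, incubated at 35° C. for 16-20 hours, and growth was compared with compound-free control wells to give the MIC.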

In assay [2] the test system is E. faecalis ATCC29212. To be noted: C: E. faecalis ATCC29212, 35° C., 16-20 hours. In short, it runs like this:
as §1

Assay [3] relates to H. influenzae ATCC49247. The settings on record: E: H. influenzae ATCC49247, 35° C., 16-20 hours. The gist of the method: as §1
The test system of assay [4] is S. aureus ATCC29213. The settings on record: B: S. aureus ATCC29213, 35° C., 16-20 hours. The gist of the method: as §1
The test system of assay [5] is S. pneumoniae ATCC49619. To be noted: D: S. pneumoniae ATCC49619, 35° C., 16-20 hours. In short, it runs like this: as §1

As for `CCC1OC(=O)C(C)(F)C(=O)C(C)C(OC2OC(C)CC(N(C)C)C2O)C(C)(OC(=O)NCC=Cc2ccc(-c3cccnn3)cc2)CC(C)C(=NO)C(C)C2NC(=O)OC12C` (centres unmarked) [Compound 125], the MIC in assay [1] worked out at 16 µg/mL (≈ 18.4 µM); in assay [2], 0.25 µg/mL (≈ 0.288 µM); in assay [3], 2 µg/mL (≈ 2.3 µM); in assay [4], 0.5 µg/mL (≈ 0.575 µM); in assay [5], 0.06 µg/mL (≈ 0.069 µM).

As to `CC[C@H]1OC(=O)[C@H](C)C(=O)[C@H](C)[C@@H](O[C@@H]2O[C@H](C)C[C@H](N(C)C)[C@H]2O)[C@](C)(OC(=O)NCc2ccc(-c3ncccn3)cc2)C[C@@H](C)C(=O)[C@H](C)[C@H]2NC(=O)O[C@@]21C` [Compound 31], the MIC is 16 µg/mL (≈ 19.8 µM) in assay [1]; 0.06 µg/mL (≈ 0.0741 µM) in assay [2]; 2 µg/mL (≈ 2.47 µM) in assay [3]; 0.25 µg/mL (≈ 0.309 µM) in assay [4]; 0.03 µg/mL (≈ 0.037 µM) in assay [5].

On to `CC[C@H]1OC(=O)[C@H](C)C(=O)[C@H](C)[C@@H](O[C@@H]2O[C@H](C)C[C@H](N(C)C)[C@H]2O)[C@](C)(OC(=O)NC/C=C/c2cncc3ccccc23)C[C@@H](C)C(=O)[C@H](C)[C@H]2NC(=O)O[C@@]21C` [Compound 52], for which the MIC stood at 8 µg/mL (≈ 9.89 µM) in assay [1]; 0.12 µg/mL (≈ 0.148 µM) in assay [2]; 2 µg/mL (≈ 2.47 µM) in assay [3]; 0.25 µg/mL (≈ 0.309 µM) in assay [4]; 0.03 µg/mL (≈ 0.0371 µM) in assay [5].

Take `CC[C@H]1OC(=O)[C@H](C)C(=O)[C@H](C)[C@@H](O[C@@H]2O[C@H](C)C[C@H](N(C)C)[C@H]2O)[C@](C)(OC(=O)NCc2cccc(-c3ncccn3)c2)C[C@@H](C)C(=O)[C@H](C)[C@H]2NC(=O)O[C@@]21C` [Compound 65]: the MIC in assay [1] was above 16 µg/mL; in assay [2], 0.25 µg/mL (≈ 0.309 µM); in assay [3] it was 8 µg/mL (≈ 9.88 µM); in assay [4], 2 µg/mL (≈ 2.47 µM); in assay [5], 0.06 µg/mL (≈ 0.0741 µM).

Turning to `CC[C@H]1OC(=O)[C@H](C)C(=O)[C@H](C)[C@@H](O[C@@H]2O[C@H](C)C[C@H](N(C)C)[C@H]2O)[C@](C)(OC(=O)NCC2CC(c3ccc(-c4ncccn4)cc3)C2)C[C@@H](C)C(=O)[C@H](C)[C@H]2NC(=O)O[C@@]21C` (some centres unmarked) [Compound 135], the MIC is above 16 µg/mL in assay [1]; 2 µg/mL (≈ 2.31 µM) in assay [2]; above 16 µg/mL in assay [3]; 4 µg/mL (≈ 4.63 µM) in assay [4]; 0.5 µg/mL (≈ 0.579 µM) in assay [5].

Take `CC[C@H]1OC(=O)[C@H](C)C(=O)[C@H](C)[C@@H](O[C@@H]2O[C@H](C)C[C@H](N(C)C)[C@H]2O)[C@](C)(OC(=O)NC/C=C/c2ccc(-c3ccncn3)cc2)C[C@@H](C)C(=O)[C@H](C)[C@H]2NC(=O)O[C@@]21C` [Compound 78]: the MIC in assay [1] is above 16 µg/mL; in assay [2] it was 0.06 µg/mL (≈ 0.0718 µM); in assay [3] it was 4 µg/mL (≈ 4.78 µM); in assay [4] it was 0.25 µg/mL (≈ 0.299 µM); in assay [5], 0.03 µg/mL (≈ 0.0359 µM).

For the compound `CC[C@H]1OC(=O)[C@H](C)C(=O)[C@H](C)[C@@H](O[C@@H]2O[C@H](C)C[C@H](N(C)C)[C@H]2O)[C@](C)(OC(=O)NC/C=C/c2ccc(-n3cccn3)cc2)C[C@@H](C)C(=O)[C@H](C)[C@H]2NC(=O)O[C@@]21C` [Compound 18], the MIC in assay [1] was found to be 16 µg/mL (≈ 19.4 µM); in assay [2], 0.06 µg/mL (≈ 0.0728 µM); in assay [3], 4 µg/mL (≈ 4.85 µM); in assay [4] it was 0.25 µg/mL (≈ 0.303 µM); in assay [5] it was 0.03 µg/mL (≈ 0.0364 µM).

`CC[C@H]1OC(=O)[C@H](C)C(=O)[C@H](C)[C@@H](O[C@@H]2O[C@H](C)C[C@H](N(C)C)[C@H]2O)[C@](C)(OC(=O)NC/C=C/c2ccc(-n3cccn3)cc2F)C[C@@H](C)C(=O)[C@H](C)[C@H]2NC(=O)O[C@@]21C` [Compound 74]: the MIC in assay [1] is 16 µg/mL (≈ 19 µM); in assay [2], 0.06 µg/mL (≈ 0.0713 µM); in assay [3], 1 µg/mL (≈ 1.19 µM); in assay [4], 0.06 µg/mL (≈ 0.0713 µM); in assay [5] it was “≦0.015 μg/mL”.

For `CC[C@H]1OC(=O)[C@H](C)C(=O)[C@H](C)[C@@H](O[C@@H]2O[C@H](C)C[C@H](N(C)C)[C@H]2O)[C@](C)(OC(=O)NC/C=C/c2ccc(-c3ccccn3)s2)C[C@@H](C)C(=O)[C@H](C)[C@H]2NC(=O)O[C@@]21C` [Compound 57], the MIC in assay [1] is 16 µg/mL (≈ 19 µM); in assay [2] it was 0.12 µg/mL (≈ 0.143 µM); in assay [3], 2 µg/mL (≈ 2.38 µM); in assay [4], 0.25 µg/mL (≈ 0.297 µM); in assay [5] it was 0.03 µg/mL (≈ 0.0357 µM).

As to `CC[C@H]1OC(=O)[C@H](C)C(=O)[C@H](C)[C@@H](O[C@@H]2O[C@H](C)C[C@H](N(C)C)[C@H]2O)[C@](C)(OC(=O)NC/C=C/c2ccc(-c3ncccn3)cc2)C[C@@H](C)C(=NO)[C@H](C)[C@H]2NC(=O)O[C@@]21C` [Compound 133], the MIC was found to be 16 µg/mL (≈ 18.8 µM) in assay [1]; 0.25 µg/mL (≈ 0.294 µM) in assay [2]; 2 µg/mL (≈ 2.35 µM) in assay [3]; 0.25 µg/mL (≈ 0.294 µM) in assay [4]; 0.03 µg/mL (≈ 0.0353 µM) in assay [5].

As to `CC[C@H]1OC(=O)[C@H](C)C(=O)[C@H](C)[C@@H](O[C@@H]2O[C@H](C)C[C@H](N(C)C)[C@H]2O)[C@](C)(OC(=O)NC/C=C/c2ccc(-n3ccnc3)cc2)C[C@@H](C)C(=O)[C@H](C)[C@H]2NC(=O)O[C@@]21C` [Compound 22], the MIC in assay [1] is 8 µg/mL (≈ 9.71 µM); in assay [2] it was 0.06 µg/mL (≈ 0.0728 µM); in assay [3], 2 µg/mL (≈ 2.43 µM); in assay [4], 0.25 µg/mL (≈ 0.303 µM); in assay [5], 0.03 µg/mL (≈ 0.0364 µM).

As to `CC[C@H]1OC(=O)[C@H](C)C(=O)[C@H](C)[C@@H](O[C@@H]2O[C@H](C)C[C@H](N(C)C)[C@H]2O)[C@](C)(OC(=O)NC/C(C)=C/c2ccccc2)C[C@@H](C)C(=O)[C@H](C)[C@H]2NC(=O)O[C@@]21C` [Compound 21], the MIC in assay [1] was above 16 µg/mL; in assay [2] it was 0.25 µg/mL (≈ 0.324 µM); in assay [3] it was 4 µg/mL (≈ 5.18 µM); in assay [4], 0.5 µg/mL (≈ 0.648 µM); in assay [5] it was 0.06 µg/mL (≈ 0.0777 µM).

As to `CC[C@H]1OC(=O)[C@H](C)C(=O)[C@H](C)[C@@H](O[C@@H]2O[C@H](C)C[C@H](N(C)C)[C@H]2O)[C@](C)(OC(=O)NC/C=C/c2ccc([N+](=O)[O-])cc2)C[C@@H](C)C(=O)[C@H](C)[C@H]2NC(=O)O[C@@]21C` [Compound 15], the MIC in assay [1] was determined as 4 µg/mL (≈ 4.98 µM); in assay [2] it was 0.06 µg/mL (≈ 0.0747 µM); in assay [3], 2 µg/mL (≈ 2.49 µM); in assay [4], 0.12 µg/mL (≈ 0.149 µM); in assay [5], 0.03 µg/mL (≈ 0.0374 µM).

Take `CC[C@H]1OC(=O)[C@H](C)C(=O)[C@H](C)[C@@H](O[C@@H]2O[C@H](C)C[C@H](N(C)C)[C@H]2O)[C@](C)(OC(=O)NC/C=C/c2ccc(-c3cncnc3)cc2)C[C@@H](C)C(=O)[C@H](C)[C@H]2NC(=O)O[C@@]21C` [Compound 27]: the MIC in assay [1] came to 16 µg/mL (≈ 19.1 µM); in assay [2], 0.12 µg/mL (≈ 0.144 µM); in assay [3] it was 4 µg/mL (≈ 4.78 µM); in assay [4], 0.25 µg/mL (≈ 0.299 µM); in assay [5], 0.06 µg/mL (≈ 0.0718 µM).

For the compound `CCC1OC(=O)C(C)(F)C(=O)C(C)C(OC2OC(C)CC(N(C)C)C2O)C(C)(OC(=O)NCC=Cc2cnc3ccccc3c2)CC(C)C(=NO)C(C)C2NC(=O)OC12C` (centres unmarked) [Compound 127], the MIC in assay [1] was 8 µg/mL (≈ 9.5 µM); in assay [2], 0.12 µg/mL (≈ 0.143 µM); in assay [3] it was 2 µg/mL (≈ 2.38 µM); in assay [4], 0.25 µg/mL (≈ 0.297 µM); in assay [5], 0.03 µg/mL (≈ 0.0356 µM).

Consider `CC[C@H]1OC(=O)[C@H](C)C(=O)[C@H](C)[C@@H](O[C@@H]2O[C@H](C)C[C@H](N(C)C)[C@H]2O)[C@](C)(OC(=O)NCc2ccc(-n3cc(C)cn3)cc2)C[C@@H](C)C(=O)[C@H](C)[C@H]2NC(=O)O[C@@]21C` [Compound 64], for which the MIC in assay [1] is above 16 µg/mL; in assay [2] it was 0.12 µg/mL (≈ 0.148 µM); in assay [3], 4 µg/mL (≈ 4.93 µM); in assay [4], 1 µg/mL (≈ 1.23 µM); in assay [5] it was 0.03 µg/mL (≈ 0.0369 µM).

In the case of `CC[C@H]1OC(=O)[C@H](C)C(=O)[C@H](C)[C@@H](O[C@@H]2O[C@H](C)C[C@H](N(C)C)[C@H]2O)[C@](C)(OC(=O)NCc2cn(-c3ncccn3)cn2)C[C@@H](C)C(=O)[C@H](C)[C@H]2NC(=O)O[C@@]21C` [Compound 93], the MIC is 16 µg/mL (≈ 20 µM) in assay [1]; 0.06 µg/mL (≈ 0.075 µM) in assay [2]; 1 µg/mL (≈ 1.25 µM) in assay [3]; 0.5 µg/mL (≈ 0.625 µM) in assay [4]; “≦0.015 μg/mL” in assay [5].

Take `CC[C@H]1OC(=O)[C@H](C)C(=O)[C@H](C)[C@@H](O[C@@H]2O[C@H](C)C[C@H](N(C)C)[C@H]2O)[C@](C)(OC(=O)NCc2ccc(-n3cccn3)c(F)c2)C[C@@H](C)C(=O)[C@H](C)[C@H]2NC(=O)O[C@@]21C` [Compound 59]: the MIC is above 16 µg/mL in assay [1]; “≦0.25 μg/mL” in assay [2]; 4 µg/mL (≈ 4.9 µM) in assay [3]; 0.5 µg/mL (≈ 0.613 µM) in assay [4]; 0.03 µg/mL (≈ 0.0368 µM) in assay [5].

In the case of `CC[C@H]1OC(=O)[C@H](C)C(=O)[C@H](C)[C@@H](O[C@@H]2O[C@H](C)C[C@H](N(C)C)[C@H]2O)[C@](C)(OC(=O)NCc2ccc(-n3cccn3)c(OC)c2)C[C@@H](C)C(=O)[C@H](C)[C@H]2NC(=O)O[C@@]21C` [Compound 81], the MIC in assay [1] is above 16 µg/mL; in assay [2] it was 0.12 µg/mL (≈ 0.145 µM); in assay [3] it was 8 µg/mL (≈ 9.66 µM); in assay [4], 2 µg/mL (≈ 2.42 µM); in assay [5], 0.06 µg/mL (≈ 0.0725 µM).
